Results reported in US6107284A, “Water-soluble derivatives of epipodophyllotoxin, process for their preparation, their use as medicinal products and their intended use in anti-cancer treatments” (Pierre Fabre Medicament, priority 1994, dated 2000).
Counter-ions that a name gives are not always drawn. Like-named read-outs stand apart in the source and are kept apart here.

How the values were obtained:
[1] = Measurement of the water-solubility of the salts; format: physicochemical; details: read-out: % solubility (weight/volume) expressed in g per 100 ml of water
From the text: The amorphous or crystalline salts are obtained by simple freeze-drying. [drawing 4] Measurement of the Water-Solubility
The solubility in water of the salts of the phosphate or carboxylate derivatives by addition of physiologically acceptable organic amines such as, for example, N-methylglucamine, triethanolamine or lysine, or the salts with inorganic cations such as sodium, obtained in lyophilized form or by extemporaneous addition of a base to the free acid compound, gave the following results by way of example.

topoisomerase II = topoisomerase II (Cricetulus griseus, UniProt P41515); experiment: Test of inhibition of the activity of topoisomerase II; format: biochemical; details: for IC50: in vitro, read-out: Test of inhibition of the activity of topoisomerase II (ED50 M)
From the text: Measurement of the inhibition of the activity of topoisomerase II is made according to the procedure described in the literature: "Nuclear topoisomerase II levels correlate with the sensitivity of mammalian cells to intercalating Agents and Epipodophyllotoxins", I. D. Hickson et al., J. Biol. Chem. (1988), 263, 17724.

[2] = background, known drugs; cited from earlier work

topoisomerase II, sequence (P41515 whole entry): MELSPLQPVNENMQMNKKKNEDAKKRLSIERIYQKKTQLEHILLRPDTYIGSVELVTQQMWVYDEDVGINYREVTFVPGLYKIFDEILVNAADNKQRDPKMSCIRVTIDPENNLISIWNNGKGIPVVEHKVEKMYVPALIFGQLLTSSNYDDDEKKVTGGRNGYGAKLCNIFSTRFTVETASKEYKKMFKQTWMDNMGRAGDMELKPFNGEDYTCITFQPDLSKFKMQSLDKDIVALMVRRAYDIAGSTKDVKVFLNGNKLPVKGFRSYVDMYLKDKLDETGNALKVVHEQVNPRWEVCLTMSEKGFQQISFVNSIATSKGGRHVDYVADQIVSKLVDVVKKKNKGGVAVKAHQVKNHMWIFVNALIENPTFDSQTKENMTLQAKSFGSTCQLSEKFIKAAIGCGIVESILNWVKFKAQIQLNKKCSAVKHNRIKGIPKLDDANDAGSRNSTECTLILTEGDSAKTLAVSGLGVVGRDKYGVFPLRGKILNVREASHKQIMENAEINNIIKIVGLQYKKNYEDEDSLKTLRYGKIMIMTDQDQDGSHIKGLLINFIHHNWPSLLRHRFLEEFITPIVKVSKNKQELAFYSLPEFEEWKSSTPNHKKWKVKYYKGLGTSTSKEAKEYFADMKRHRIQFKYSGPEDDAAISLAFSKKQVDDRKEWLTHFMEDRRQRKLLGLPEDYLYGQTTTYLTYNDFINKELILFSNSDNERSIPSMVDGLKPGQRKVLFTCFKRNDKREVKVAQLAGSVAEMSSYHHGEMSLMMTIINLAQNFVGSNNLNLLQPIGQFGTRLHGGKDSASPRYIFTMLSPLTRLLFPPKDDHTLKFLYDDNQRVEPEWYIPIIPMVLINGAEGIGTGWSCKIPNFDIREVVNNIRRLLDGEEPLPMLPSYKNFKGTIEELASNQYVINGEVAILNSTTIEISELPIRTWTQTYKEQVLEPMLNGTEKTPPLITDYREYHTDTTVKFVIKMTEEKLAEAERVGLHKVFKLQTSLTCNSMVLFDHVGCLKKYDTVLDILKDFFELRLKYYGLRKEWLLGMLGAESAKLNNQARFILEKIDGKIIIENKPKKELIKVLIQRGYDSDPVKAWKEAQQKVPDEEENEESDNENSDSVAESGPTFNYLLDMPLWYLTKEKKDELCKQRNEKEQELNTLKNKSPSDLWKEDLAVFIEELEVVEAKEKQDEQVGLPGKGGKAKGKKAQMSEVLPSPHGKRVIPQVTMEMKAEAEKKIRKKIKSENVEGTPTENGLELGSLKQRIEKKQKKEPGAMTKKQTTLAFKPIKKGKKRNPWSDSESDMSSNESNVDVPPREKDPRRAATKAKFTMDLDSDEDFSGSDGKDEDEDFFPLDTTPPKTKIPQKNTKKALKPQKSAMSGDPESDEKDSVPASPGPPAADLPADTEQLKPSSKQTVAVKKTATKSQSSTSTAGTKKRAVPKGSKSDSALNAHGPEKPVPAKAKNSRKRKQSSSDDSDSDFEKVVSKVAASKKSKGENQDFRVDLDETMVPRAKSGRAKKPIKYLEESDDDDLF

Structure (SMILES) | solubility ([1]; N-methylglucamine salt) [mg/mL] | IC50 (topoisomerase II) [µM] | also measured
COc1cc([C@@H]2c3cc4c(cc3[C@@H](O[C@@H]3O[C@@H]5CO[C@@H](C)O[C@H]5[C@H](OC(=O)COc5ccc(Cl)cc5)[C@H]3OC(=O)COc3ccc(Cl)cc3)[C@H]3COC(=O)[C@H]23)OCO4)cc(OC)c1OP(=O)(O)O [Example 27, 4'-demethyl-4'-deoxy-4'-phosphate-4-O-(2,3-bis(4-chlorophenoxyacetyl)-4,6-ethylidene-β-D-glucosyl)epipodophyllotoxin] | 5 | 0.76 | –
COc1cc([C@@H]2c3cc4c(cc3[C@@H](O[C@@H]3O[C@@H]5CO[C@@H](C)O[C@H]5[C@H](OC(=O)COc5ccc(OC(F)(F)F)cc5)[C@H]3OC(=O)COc3ccc(OC(F)(F)F)cc3)[C@H]3COC(=O)[C@H]23)OCO4)cc(OC)c1OP(=O)(O)O [Example 3, 4'-demethyl-4-O-(2,3-bis-(4-trifluoromethoxyphenoxyacetyl)-4,6-ethylidene-β-D-gluocosyl)epipodophyllotoxin-4'-deoxy-4'-phosphate, bis(N-methylglucamine) Salt] | 50 | 0.32 | –
COc1cc([C@@H]2c3cc4c(cc3[C@@H](O[C@@H]3O[C@@H]5CO[C@@H](C)O[C@H]5[C@H](OC(=O)COc5ccc(F)cc5)[C@H]3OC(=O)COc3ccc(F)cc3)[C@H]3COC(=O)[C@H]23)OCO4)cc(OC)c1OP(=O)(O)O [Example 4, 4'-demethyl-4-O-(2,3-bis(4-fluorophenoxyacetyl)-4,6-ethylidene-β-D-glucosyl)epipodophyllotoxin-4'-deoxy-4'-phosphate bis(N-methylglucamine) Salt] | 100 | 1.8 | –
COc1cc([C@@H]2c3cc4c(cc3[C@@H](O[C@@H]3O[C@@H]5CO[C@@H](C)O[C@H]5[C@H](OC(=O)CS(=O)(=O)c5ccccc5)[C@H]3OC(=O)CS(=O)(=O)c3ccccc3)[C@H]3COC(=O)[C@H]23)OCO4)cc(OC)c1OP(=O)(O)O [Example 21, 4'-demethyl-4'-deoxy-4'-phosphate-4-O-(2,3-bis(phenylsulfonylacetyl)-4,6-ethylidene-β-D-glucosyl)epipodophyllotoxin] | 100 | 5.6 | –
COc1cc([C@@H]2c3cc4c(cc3[C@@H](O[C@@H]3O[C@@H]5CO[C@@H](C)O[C@H]5[C@H](OC(=O)COc5ccc(OP(=O)(O)O)cc5)[C@H]3OC(=O)COc3ccc(OP(=O)(O)O)cc3)[C@H]3COC(=O)[C@H]23)OCO4)cc(OC)c1OC(=O)COc1ccc(OP(=O)(O)O)cc1 [Example 6, 4'-(4-phosphonooxyphenoxyacetyl)-4'-demethyl-4-O-(2,3-bis(4-phosphonooxyphenoxyacetyl)-4,6-ethylidene-β-D-glucosyl)epipodophyllotoxin] | 100 | 0.32 | solubility ([1]; Sodium salt): 10 mg/mL; solubility ([1]; lysine salt): 200 mg/mL; solubility ([1]; triethanolamine salt): 200 mg/mL
COc1cc([C@@H]2c3cc4c(cc3[C@@H](O[C@@H]3O[C@@H]5CO[C@@H](C)O[C@H]5[C@H](O)[C@H]3O)[C@H]3COC(=O)[C@H]23)OCO4)cc(OC)c1OP(=O)(O)O [Etopofos, reference compound] | – | > 100 | in vitro activity compared with etoposide (in words) (topoisomerase II; relative to etoposide): loss of in vitro activity
COc1cc([C@@H]2c3cc4c(cc3[C@@H](O[C@@H]3O[C@@H]5CO[C@@H](C)O[C@H]5[C@H](OC(=O)COc5ccc(OP(=O)(O)O)cc5)[C@H]3OC(=O)COc3ccc(OP(=O)(O)O)cc3)[C@H]3COC(=O)[C@H]23)OCO4)cc(OC)c1OP(=O)(O)O [Example 7, 4'-demethyl-4-O-(2,3-bis(4-phosphonooxyphenoxyacetyl)-4,6-ethylidene-β-D-glucosyl)epipodophyllotoxin-4'-deoxy-4'-phosphate] | 100 | 56 | –
COc1cc([C@@H]2c3cc4c(cc3[C@@H](O[C@@H]3O[C@@H]5CO[C@@H](c6cccs6)O[C@H]5[C@H](O)[C@H]3O)[C@H]3COC(=O)[C@H]23)OCO4)cc(OC)c1O [teniposide] | – | – | water-solubility (in words) [2]: lack of water-solubility
COc1cc([C@@H]2c3cc4c(cc3[C@@H](O[C@@H]3O[C@@H]5CO[C@@H](C)O[C@H]5[C@H](O)[C@H]3O)[C@H]3COC(=O)[C@H]23)OCO4)cc(OC)c1O [Etoposide, reference compound] | – | 56 | water-solubility (in words) [2]: lack of water-solubility
COc1cc([C@@H]2c3cc4c(cc3[C@@H](O[C@@H]3O[C@@H]5CO[C@@H](C)O[C@H]5[C@H](OC(=O)COc5ccccc5)[C@H]3OC(=O)COc3ccccc3)[C@H]3COC(=O)[C@H]23)OCO4)cc(OC)c1OP(=O)(O)O [Example 1, 4'-demethyl-4-O-(2,3-bisphenoxyacetyl-4,6-ethylidene-β-D-glucosyl)epipodophyllotoxin-4'-deoxy-4'-phosphate] | 5 | 5.6 | –
COc1cc([C@@H]2c3cc4c(cc3[C@@H](O[C@@H]3O[C@@H]5CO[C@@H](C)O[C@H]5[C@H](OC(=O)COc5ccc(O)cc5)[C@H]3OC(=O)COc3ccc(O)cc3)[C@H]3COC(=O)[C@H]23)OCO4)cc(OC)c1OC(=O)N(CC(=O)O)CC(=O)O [Example 11, 4'-(dicarboxymethylaminocarbonyl)-4'-demethyl-4-O-(2,3-bis(p-hydroxyphenoxyacetyl)-4,6-ethylidene-β-D-glucosyl)epipodophyllotoxin] | 100 | 5.6 | –
COc1cc([C@@H]2c3cc4c(cc3[C@@H](O[C@@H]3O[C@@H]5CO[C@@H](C)O[C@H]5[C@H](OC(=O)COc5ccc(OCC(=O)O)cc5)[C@H]3OC(=O)COc3ccc(OCC(=O)O)cc3)[C@H]3COC(=O)[C@H]23)OCO4)cc(OC)c1OC(=O)COc1ccc(OCC(=O)O)cc1 [Example 26, 4'-demethyl-4'-carboxymethoxyphenoxyacetyl-4-O-(2,3-bis(4-carboxymethoxyphenoxyacetyl)-4,6-ethylidene-β-D-glucosyl)epipodophyllotoxin] | 100 | 5.6 | –
